# Entries after “also recorded” stand apart in the source; their conditions may differ.
# Assays:
# rats = tested on: rats; set-up: method as in Zheng et al., 1994; settings: subcutaneous, ref Zheng et al., 1994; cited from earlier work
# mice [1] = tested on: mice; set-up: method as in Zheng et al., 1994; settings: subcutaneous, ref Zheng et al., 1994; cited from earlier work
# [2] = set-up: method as in Zheng et al., 1994; settings: intracerebroventricular injection; ref Zheng et al., 1994; cited from earlier work
# [3] = tested on: prodynorphin gene expression in primary cultures of spinal microglia; assay: Prodynorphin gene expression in cultured primary spinal microglia (real-time quantitative PCR); assay type: cell-based, rat
# Method: Glial cells were isolated from the 1-day-old neonatal rats. The isolated spinal cords were minced and then incubated with trypsin. Dissociated cells were suspended in 75-cm^2 tissue culture flasks (1 × 10^7 cells/flask) precoated with poly-L-lysine and maintained in a 5% CO2 incubator at 37°C. After culture for 10 days, the microglial cells were prepared as floating cell suspensions by shaking the flask at 260 rpm for 2 h. The aliquots were transferred to plates, and the unattached cells were removed by washing with serum-free Dulbecco’s modified Eagle’s medium.
# RNA extraction, reverse transcription, and real-time quantitative PCR were performed as previously described ([Chen et al., 2012]). The spinal lumbar enlargements of rats were collected and mechanically homogenized with an electronic microhomogenizer at 4,000 rpm for 10 s in TRIzol on ice. Total RNA from the spinal lumbar enlargements were isolated using TRIzol reagent (Invitrogen, Grand Island, NY, USA). A 1-μg sample of total RNA was reverse-transcribed with a ReverTra Ace qPCR RT-Kit (Toyobo, Japan). Real-time quantitative PCR was carried out with the Mastercycler ep realplex (Eppendorf, Germany) using the RealmasterMix (SYBR Green I) (Toyobo). The fold change was calculated with the 2^-ΔΔCt method after normalization to the gene of gapdh. […]
# The percentage of maximal possible effect (% MPE) was calculated using the following formula: (postdrug threshold in ipsilateral hindlimb – baseline threshold in ipsilateral hindlimb)/(baseline threshold in contralateral hindlimb – baseline threshold in ipsilateral hindlimb) × 100 ([Bowersox et al., 1996]). […] For the dose-response curve analysis, the parameters (i.e., minimum effect; Emax, median effective concentration or dose, or median toxic or lethal dose [EC50, ED50, TD50, or LD50], and Hill coefficient [n]) were calculated from the individual dose-response curves using the Prism program (version 5.01, GraphPad Software, San Diego, CA, USA). […]
# Primary cultures of microglial cells taken from the spinal cords of the neonatal rats were treated with a variety of concentrations of aconitine (1 × 10^-8, 3 × 10^-8, 1 × 10^-7, 3 × 10^-7, and 1 × 10^-6 M), benzolyaconine (3 × 10^-7, 1 × 10^-6, 3 × 10^-6, 1 × 10^-5, 3 × 10^-5, and 1 × 10^-4 M) and aconine (1 × 10^-4, 3 × 10^-4, 1 × 10^-3, 3 × 10^-3, and 1 × 10^-2 M) for 2 h. As the bulleyaconitine A-increased dynorphin A level measured by the enzyme-linked immunosorbent assay was in parallel with the prodynorphin gene expression in spinal microglia from neonatal and adult rats ([Li et al., 2016]), the expression of the cellular prodynorphin gene encoding dynorphin A was only measured in this study using real-time quantitative PCR. […]
# [4] = tested on: mechanical allodynia in spinal L5/L6 nerve–ligated neuropathic rats; assay: Mechanical allodynia (von Frey paw withdrawal threshold) after intrathecal injection in spinal nerve-ligated neuropathic rats; assay type: in vivo, rat
# Method: (§1) An 18-cm polyethylene catheter (PE-10: 0.28-mm inner diameter and 0.61-mm outer diameter, Clay Adams, Parsippany, NJ, USA) with a volume of 13 μL was inserted into the lumbar level of the spinal cord as described elsewhere under inhalational isoflurane anesthesia (4% for induction and 1% for maintenance) run by an anesthesia meter (Ugo Basile Gas Anesthesia System, Comerio, Italy). Two days after recovery from anesthesia, the placement of the catheter in the spinal cord was verified by administration of 4% lidocaine (10 μL, followed by 15 μL of saline for flushing). Rats that had no motor impairment after placement of the intrathecal catheter were considered for the study, and rats that developed immediate bilateral paralysis of the hindlimbs after intrathecal administration of lidocaine were selected for the study. For intrathecal administration of the control and test articles, 10 μL of each drug was injected with a 50-μL microinjector (Shanghai Anting Micro-Injector Factory, Shanghai, China) and was flushed with 15 μL of normal saline solution.
# (§2) To induce hypersensitivity to neuropathic pain, the rats were subjected to spinal nerve ligation as previously described [Kim and Chung (1992)] and [Zhang et al. (2013)]. Unilateral ligation of the L5 and L6 spinal nerves was performed under inhalational isoflurane anesthesia (4% for induction and 1% for maintenance) run by an anesthesia meter (Ugo Basile Gas Anesthesia System). The left L5 and L6 spinal nerves were isolated and tightly ligated with 6-0 silk thread. After ligation, the wound was sutured and the rats were returned to their home cages for recovery. After spinal nerve ligation, only those rats with marked unilateral allodynia to mechanical stimulation (i.e., a hindpaw withdrawal threshold of less than 8 g on the operated side) and with no major impairment were included in the study. Drug testing started 2–4 weeks after spinal nerve ligation.
# To evaluate mechanical allodynia, the animals were acclimatized for at least 30 min to the test environment, namely, a plexiglass box on a metal grid (0.5 cm × 0.5 cm). The hindpaw withdrawal threshold was measured with a 2450 CE Electronic von Frey hair (IITC Life Science Inc, Woodland Hill, CA, USA). An electronic handheld transducer with a No. 15 monofilament was applied perpendicularly to the medial surface of the hindpaws with increasing force (ranging from 0.1 to 90 g) until the rat suddenly withdrew or licked the hindpaw. The lowest force that produced a withdrawal response was considered to be the threshold, which was the mean of three repeated measurements made in a 5-min interval.
# (§3) The percentage of maximal possible effect (% MPE) was calculated using the following formula: (postdrug threshold in ipsilateral hindlimb – baseline threshold in ipsilateral hindlimb)/(baseline threshold in contralateral hindlimb – baseline threshold in ipsilateral hindlimb) × 100 ([Bowersox et al., 1996]). A % MPE value near 100 indicates normal mechanical thresholds (i.e., near contralateral thresholds), and a value near 0 indicates allodynia. For the dose-response curve analysis, the parameters (i.e., minimum effect; Emax, median effective concentration or dose, or median toxic or lethal dose [EC50, ED50, TD50, or LD50], and Hill coefficient [n]) were calculated from the individual dose-response curves using the Prism program (version 5.01, GraphPad Software, San Diego, CA, USA). To determine the parameters of the dose-response curves, the values of response (Y) were fitted by non-linear least-squares curves to the relation Y = a + bx, where x = [D]^n/(ED50^n + [D]^n), [C]^n/(EC50^n + [C]^n), [D]^n/(TD50^n + [D]^n) or [D]^n/(LD50^n + [D]^n), to give each value of ED50, EC50, TD50, or LD50 and b (Emax) yielding a minimum residual sum of squares of deviations from the theoretical curve ([Wang and Pang, 1993]).
# mice [5] = settings: intravenous injection in mice; ref Mizugaki and Ito, 2005; cited from earlier work
# [6] = tested on: heat hyperalgesia in spinal L5/L6 nerve–ligated neuropathic rats; assay: Heat hyperalgesia (radiant heat paw withdrawal latency) after intrathecal injection in spinal nerve-ligated neuropathic rats; assay type: in vivo, rat
# Method: as §1, §2
# To assess heat hyperalgesia, the rats were put in a plexiglass box on an elevated glass surface. After an adaptation period of at least 30 min, radiant heat was applied to the plantar medial surface of each hindpaw. The hindpaw withdrawal latency was measured with a Model 390G Plantar Test Analgesia Meter (IITC Life Science Inc.). To prevent tissue damage, the latency cutoff was set at 30 s. The paw withdrawal latency was defined as the time from the onset of radiant heat application to the withdrawal of the hindpaw. Both hindpaws were tested independently three times with a 5-min interval between trials. The result for each test was calculated as the mean of the three repeated measurements.
# The percentage of maximal possible effect (% MPE) was calculated using the following formula: (postdrug threshold in ipsilateral hindlimb – baseline threshold in ipsilateral hindlimb)/(baseline threshold in contralateral hindlimb – baseline threshold in ipsilateral hindlimb) × 100 ([Bowersox et al., 1996]). A % MPE value near 100 indicates normal mechanical thresholds (i.e., near contralateral thresholds), and a value near 0 indicates allodynia. For the dose-response curve analysis, the parameters (i.e., minimum effect; Emax, median effective concentration or dose, or median toxic or lethal dose [EC50, ED50, TD50, or LD50], and Hill coefficient [n]) were calculated from the individual dose-response curves using the Prism program (version 5.01, GraphPad Software, San Diego, CA, USA). […]
# [7] = tested on: spinal nerve–ligated neuropathic rats; assay: Acute spinal neurotoxicity (flaccid paralysis and death) after intrathecal injection; assay type: in vivo, rat; settings: for LD50 (mortality) / TD50 (for flaccid paralysis): intrathecal bolus, observed 24 h; for Normalized TD50: average of TD50 (paralysis) and LD50
# Method: as §1
# Survival and abnormal motor-blockade behaviors, including asthma, abdominal breathing, locomotion difficulty, and paralysis, were continuously monitored for 24 h after the treatment, with special attention given during the first 4 h. Paralysis was defined as an inability to negotiate a 60-degree inclined plane ([Durant and Yaksh, 1986]). Death was defined as respiratory arrest over a period of 5 min. The paralysis and mortality rates and their latencies were quantitatively recorded and tabulated.
# as §3
# [8] = tested on: pain hypersensitivity in spinal nerve-ligated neuropathic rats; assay: Anti-hypersensitivity, normalized (anti-allodynia and anti-hyperalgesia ED50 averaged); assay type: in vivo, rat
# Method: as §3
# Table 1 summarizes the ED50 values in mole base for aconitine, benzolyaconine, and aconine to block pain hypersensitivity. Because anti-allodynia and anti-hyperalgesia were closely correlated, their ED50 values were averaged to obtain a normalized ED50 for anti-hypersensitivity. The ED50 ratios for aconitine and benzolyaconine to block mechanical allodynia and heat hyperalgesia were 1:92 and 1:110, with a normalized ED50 ratio of 1:102.
# neuropathic rats = tested on: neuropathic rats; set-up: method as in Li et al., 2016; settings: ref Li et al., 2016; cited from earlier work
# [9] = tested on: acetic acid and formalin tests; set-up: method as in Yu et al., 1996; settings: systemic; ref Yu et al., 1996; cited from earlier work
# [10] = tested on: dynorphin A expression in spinal microglia; settings: ref Li et al., 2016, cited from earlier work
# [11] = tested on: mechanical allodynia in spinal L5/L6 nerve–ligated neuropathic rats; set-up: method as in Li et al., 2016; settings: ref Li et al., 2016; cited from earlier work
# [12] = tested on: heat hyperalgesia in spinal L5/L6 nerve–ligated neuropathic rats; set-up: method as in Li et al., 2016; settings: ref Li et al., 2016; cited from earlier work
# [13] = intrathecal pretreatment: antiserum 1:10 or nor-BNI 100 μg 0.5 h earlier, minocycline 100 μg 4 h earlier
molecule,measurement,setting,value
"CCN1C[C@]2(COC)[C@H](OC(C)=O)C[C@H](OC)C34C1C([C@H](OC)[C@@H]32)[C@]1(O)[C@@H]2[C@H]4C[C@@](O)([C@@H]2OC(=O)c2ccccc2)[C@@H](OC)[C@@H]1OC(C)=O [3,15-diacetylbenzoylaconine]",ED50 relative to 3-acetylaconitine (times greater),rats,25–30 times
same,ED50 relative to 3-acetylaconitine (times greater),mice [1],12–16 times
same,Therapeutic index relative to 3-acetylaconitine,[2],three-fold higher
"CCN1C[C@]2(COC)[C@H](O)C[C@H](OC)[C@]34C1[C@H]([C@H](OC)[C@H]23)[C@]1(O)[C@H]2[C@@H](O)[C@](O)(C[C@H]24)[C@@H](OC)[C@@H]1O [Aconine, aconine]",Effect on prodynorphin gene (dynorphin A) expression,"[3]; up to 10 mM, 2 h",did not significantly affect prodynorphin gene expression; also recorded: did not significantly stimulate the dynorphin A expression
same,Effect on mechanical allodynia in ipsilateral paws,"[4]; intrathecal, up to 300 μg",did not produce significant anti-allodynia or anti-hyperalgesia; also recorded: did not alter mechanical allodynia or thermal hyperalgesia
same,LD50,mice [5],120 mg/kg
same,Effect on heat hyperalgesia in ipsilateral paws,[6]; up to 300 μg,did not produce significant anti-allodynia or anti-hyperalgesia; also recorded: did not alter mechanical allodynia or thermal hyperalgesia
same,LD50 (mortality),[7],1.7 µmol
same,TD50 (for flaccid paralysis),[7],1.5 µmol
same,Normalized TD50,[7]; intrathecal,1.6 µmol
"CCN1CC2(COC)C(O)CC(OC)C34C5CC6(O)C(OC)C(O)C(O)(C5C6OC(=O)c5ccccc5)C(C(OC)C23)C14 (stereo not shown) [Benzolyaconine, benzoylaconine]",EC50,"[3]; Rattus norvegicus, primary spinal microglia of neonatal rats, 2 h incubation, read-out: EC50, stimulation of prodynorphin gene (dynorphin A) expression",3000 nM
same,Normalized ED50 for anti-hypersensitivity,"[8]; intrathecal, average of allodynia and hyperalgesia ED50",3.6 nmol
same,Normalized ED50 relative to that of aconitine,[8]; times greater than aconitine,102 times
same,Anti-allodynic effect in ipsilateral paws,[4]; intrathecal 10 μg,marked and reversible anti-allodynia
same,"Emax, blockade of mechanical allodynia","[4]; intrathecal, 1 h after injection",56.4 % MPE
same,"ED50, anti-allodynia","[4]; intrathecal, % MPE at 1 h after injection",3.6 nmol
same,Effect on withdrawal responses in the contralateral paws,"[4]; intrathecal, mechanical and thermal stimuli",did not significantly affect the paw withdrawal responses in the contralateral paws
same,LD50,mice [5],23 mg/kg
same,"Emax, blockade of thermal hyperalgesia",[6]; 1 h after injection,100 % MPE
same,"ED50, anti-hyperalgesia",[6]; % MPE at 1 h after injection,3.5 nmol
same,Duration of toxic motor-blockade behavior,[7]; intrathecal,5 to 10 min
same,Latency of toxic motor-blockade behavior,[7]; intrathecal,2 to 3 min
same,LD50 (mortality),[7],0.2 µmol
same,TD50 (for flaccid paralysis),[7],0.2 µmol
same,Normalized TD50,[7]; intrathecal,0.2 µmol
"CN(C)c1ccc(O)c2c1C[C@H]1C[C@H]3[C@H](N(C)C)C(O)=C(C(N)=O)C(=O)[C@@]3(O)C(O)=C1C2=O [minocycline, reference compound]",Effect on antinociceptive effects of bulleyaconitine A,neuropathic rats,completely abolished the antinociceptive effects of bulleyaconitine A
same,Blockade of aconitine (100 ng) anti-allodynia,[4]; [13],completely prevented
same,Blockade of benzolyaconine (10 μg) anti-allodynia,[4]; [13],completely alleviated benzolyaconine anti-allodynia
same,Own effect on withdrawal responses in contralateral or ipsilateral paws,"[4]; intrathecal, compared with saline control",did not affect withdrawal thresholds
CCN1C[C@]2(COC)[C@H](O)C[C@H](OC)[C@]34C1[C@H]([C@H](OC)[C@H]23)[C@@]1(OC(C)=O)C[C@H](OC)[C@@]2(O)C[C@@H]4[C@@H]1[C@H]2OC(=O)c1ccc(OC)cc1 [yunaconitine],Antinociception compared with analogues,[9],greater antinociception than bulleyaconitine A and 3-acetylaconitine
bulleyaconitine A,EC50,"[10]; read-out: EC50, stimulation of microglial dynorphin A expression",45 nM
same,Effect on dynorphin A level / expression,[10]; spinal cord and cultured primary spinal microglia,significantly increased the dynorphin A level
same,"ED50, block of mechanical allodynia",[11],180 pmol
same,"ED50, block of heat hyperalgesia",[12],201 pmol
